# Assay results published in paper PMC8617258, “Plant LHC-like proteins show robust folding and static non-photochemical quenching” (Nature Communications, 2021).
# Numbering of substitutions follows the chain as printed.
# T1: LIL3 (LIL3.1) (Arabidopsis thaliana, UniProt Q9SYX1)
# T1 construct: PCC 6803 GT-P, DDM-solubilized, dimer
# T1 sequence (Q9SYX1 40-262): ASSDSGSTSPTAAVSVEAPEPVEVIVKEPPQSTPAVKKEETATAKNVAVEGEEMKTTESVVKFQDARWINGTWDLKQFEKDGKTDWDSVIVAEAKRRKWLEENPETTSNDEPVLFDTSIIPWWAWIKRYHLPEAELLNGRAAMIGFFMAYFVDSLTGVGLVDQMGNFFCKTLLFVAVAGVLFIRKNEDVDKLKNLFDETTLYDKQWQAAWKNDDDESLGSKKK
# T2: LIL3 (LIL3.1) (Arabidopsis thaliana, UniProt Q9SYX1, N177A)
# T2 construct: PCC 6803 GT-P, DDM-solubilized, dimer
# T2 sequence (Q9SYX1 40-262 N177A): T1 sequence (Q9SYX1 40-262) with N138A
# T3: ELIP2 (Arabidopsis thaliana, UniProt Q94K66)
# T3 construct: PCC 6803 GT-P, DDM-solubilized, monomeric
# T3 sequence (Q94K66 44-193): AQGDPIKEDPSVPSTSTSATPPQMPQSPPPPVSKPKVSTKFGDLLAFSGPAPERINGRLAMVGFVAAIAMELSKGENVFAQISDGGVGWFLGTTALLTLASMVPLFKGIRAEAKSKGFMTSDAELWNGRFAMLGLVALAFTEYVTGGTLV
# T4: LIL3 (LIL3.1) (Arabidopsis thaliana, UniProt Q9SYX1, N177D)
# T4 construct: PCC 6803 GT-P, DDM-solubilized, dimer
# T4 sequence (Q9SYX1 40-262 N177D): T1 sequence (Q9SYX1 40-262) with N138D
# B1: LIGHT-HARVESTING-LIKE 3 protein LIL3.1 from Arabidopsis, 8xHis-tagged, without the predicted signal sequence (natural protein, UniProt Q9SYX1 40-262, looked up)
# chain: T1 sequence (Q9SYX1 40-262)
# notes: printed mass 25.1 KDa; Cloned into the pPD-NFLAG plasmid by NdeI and BglII with 8xHis added by the forward primer; From the wild type background it carries Chl and zeaxanthin; from ZEP^+ and xant^- it is (almost) colourless; also called LIL3[2]; LIL3 (ZEP^+); source: Synechocystis sp; PCC 6803 (psbAII promoter; wild type, ZEP^+ or xant^- background), purified from DDM-solubilized membranes …
# What was measured:
# [1] = molecular target: T1, LIL3 (LIL3.1); assay: co-purification (Ni-NTA, sucrose gradient), CN-PAGE, SEC, HPLC pigment analysis; type: binding; details: dimer; pH 6.5, 0.03% DDM, 15 °C
# [2] = molecular target: T2, LIL3 (LIL3.1); assay: co-purification; pigment colour of the purified protein; type: binding; details: DDM-solubilized
# [3] = molecular target: T3, ELIP2; assay: co-purification (Ni-NTA, sucrose gradient), SEC, HPLC pigment analysis; type: binding; details: pH 6.5, 0.03% DDM, 15 °C
# [4] = molecular target: T4, LIL3 (LIL3.1); assay: co-purification, 2D CN/SDS-PAGE; type: binding; details: DDM-solubilized
# [5] = molecular target: the molecule itself; assay: native gel or EMSA; 2D clear native/SDS-PAGE (4-14% CN gel, DDM) of LIL3 purified from the wild type background, pigmented; Coomassie stain; mass judged against Synechocystis membrane complexes with a detergent belt assumed
Molecule,"co-purification (Ni-NTA, sucrose gradient), CN-PAGE, SEC, HPLC pigment analysis [1]",no binding [2],"co-purification (Ni-NTA, sucrose gradient), SEC, HPLC pigment analysis [3]",no binding [4],stoichiometry N [5]
"CC1=C(/C=C/C(C)=C/C=C/C(C)=C/C=C/C=C(C)/C=C/C=C(C)/C=C/C2=C(C)C[C@@H](O)CC2(C)C)C(C)(C)C[C@H](O)C1 [Zea, zeaxanthin]",Pigments extracted from the LIL3 SEC fraction contained Zea and Chl,(LIL3-N177A and LIL3-N177D) were purified from Synechocystis as completely colourless proteins,"Pigments co-isolated with ELIP2 consisted of Zea, Chl, and β-Car",showing that the N177D mutation abolishes pigment binding,
CC1=C(/C=C/C(C)=C/C=C/C(C)=C/C=C/C=C(C)/C=C/C=C(C)/C=C/C2=C(C)CCCC2(C)C)C(C)(C)CCC1 [β-Car],,,"Pigments co-isolated with ELIP2 consisted of Zea, Chl, and β-Car",,
B1,,,,,2
